Source: patent US20090227600A1, “4-(PYRAZINE-2-YL) -PYRROLIDINE -2-CARBOXYLIC ACID COMPOUNDS AND DERIVATIVES THEREOF AS HEPATITIS C VIRUS INHIBITORS” (priority 2004, published 2009)

Columns and labels:
[1] = system: Huh-7 HCV replicon cells (genotype 1a); assay: Replicon ELISA cell based assay, genotype 1a; parameters: species or system HCV genotype 1a; settings: Hepatitis C virus, Huh-7 genotype 1a replicon, 72 hours
Procedure: 100 μL of medium containing 10% FCS were added to each well of clear, flat-bottomed 96 well microplates, excepting wells in the top row. Test compound was diluted in assay medium to twice the final required starting concentration from a 40 mM stock solution in DMSO. 200 μL of the starting dilution were introduced into two wells each in the top row and doubling dilutions made down the plate by the sequential transfer of 100 μL aliquots with thorough mixing in the wells; the final 100 μL were discarded. The two bottom rows were not used for compound dilutions. Huh-7 HCV replicon cell monolayers nearing confluency were stripped from growth flasks with versene-trypsin solution and the cells were resuspended in assay medium at either 2×10^5 cells/mL (sub-line 5-15; genotype 1b; Lohmann, V., Komer, F., Koch, J-O., Herian, U., Thielmann, L. And Bartenschlager, R., 1999, Science, 285, pp 110-113) or at 3×10^5 cells/mL (genotype 1a; Gu, B., Gates, A. T., Isken, O., Behrens, S. E. and Sarisky, R. T., J. Virol., 2003, 77, 5352-5359). 100 μL of cell suspension were added to all wells and the plates incubated at 37° C. for 72 hours in a 5% CO2 atmosphere.
Following incubation, the assay medium was aspirated from the plates. The cell sheets were washed by gentle immersion in phosphate buffered saline (PBS), which was then aspirated off, and fixed with acetone:methanol (1:1) for 5 minutes. Following a further wash with PBS, 100 μL of ELISA diluent (PBS+0.05% v/v Tween 20+2% w/v skimmed milk powder) were added to all wells and the plates incubated at 37° C. for 30 minutes on an orbital platform. The diluent was removed and each well then received 50 μL of a 1/200 dilution of anti-HCV specific, murine, monoclonal antibody (either Virostat #1872 or #1877), except for wells in one of the compound-free control rows which received diluent alone to act as negative controls. The plates were incubated at 37° C. for 2 hours and washed 3 times with PBS/0.05% Tween 20, then 50 μL of horseradish peroxidase conjugated, anti-mouse, rabbit polyclonal serum (Dako #P0260), diluted 1/1000, were added to all wells. The plates were incubated for a further hour, the antibody removed and the cell sheets washed 5 times with PBS/Tween and blotted dry. The assay was developed by the addition of 50 μL of ortho-phenylenediamine/peroxidase substrate in urea/citrate buffer (SigmaFast, Sigma #P-9187) to each well, and colour allowed to develop for up to 15 minutes. The reaction was stopped by the addition of 25 μL per well of 2 M sulphuric acid and the plates were read at 490 nm on a Fluostar Optima spectrophotometer.
The substrate solution was removed and the plates were washed in tap water, blotted dry and the cells stained with 5% carbol fuchsin in water for 30 minutes. The stain was discarded and the cell sheets washed, dried and examined microscopically to assess cytotoxicity.
The absorbance values from all compound-free wells that had received both primary and secondary antibodies were averaged to obtain a positive control value. The mean absorbance value from the compound-free wells that had not received the primary antibody was used to provide the negative (background) control value. The readings from the duplicate wells at each compound concentration were averaged and, after the subtraction of the mean background from all values, were expressed as a percentage of the positive control signal. The quantifiable and specific reduction of expressed protein detected by the ELISA in the presence of a drug can be used as a measure of replicon inhibition. GraFit software was used to plot the curve of percentage inhibition against compound concentration and derive the 50% inhibitory concentration (IC50) for the compound.

[2] = molecular target: T1, HCV RNA Polymerase, recombinant full-length NS5B, genotype 1b (Hepatitis C virus genotype 1b, UniProt Q9WMX2); assay: In vitro HCV RNA-dependent RNA polymerase inhibition assay, genotype 1b full-length enzyme; assay type: biochemical, HCV genotype 1b; settings: genotype 1b full-length NS5B enzyme
T1 construct: Recombinant full-length NS5B; made in house
T1 sequence (Q9WMX2 2420-3010): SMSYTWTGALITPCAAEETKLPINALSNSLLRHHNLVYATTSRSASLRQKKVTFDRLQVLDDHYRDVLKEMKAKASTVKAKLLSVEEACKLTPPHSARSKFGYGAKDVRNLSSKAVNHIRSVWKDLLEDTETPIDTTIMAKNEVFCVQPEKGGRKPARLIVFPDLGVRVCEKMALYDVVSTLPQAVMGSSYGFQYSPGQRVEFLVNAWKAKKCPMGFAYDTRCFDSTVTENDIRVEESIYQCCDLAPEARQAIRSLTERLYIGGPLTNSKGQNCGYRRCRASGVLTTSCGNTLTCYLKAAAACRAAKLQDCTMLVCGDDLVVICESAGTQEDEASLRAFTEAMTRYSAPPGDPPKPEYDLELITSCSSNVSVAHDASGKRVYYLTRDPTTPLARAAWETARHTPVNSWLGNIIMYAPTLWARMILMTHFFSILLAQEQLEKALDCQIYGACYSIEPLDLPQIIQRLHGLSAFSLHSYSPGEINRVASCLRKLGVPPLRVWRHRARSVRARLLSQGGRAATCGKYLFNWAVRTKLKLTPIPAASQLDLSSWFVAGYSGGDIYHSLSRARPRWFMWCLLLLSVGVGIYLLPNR
Procedure: Incorporation of [^33P]-GMP into RNA was followed by absorption of the biotin labelled RNA polymer by streptavidin containing SPA beads. A synthetic template consisting of biotinylated 13mer-oligoG hybridised to polyrC was used as a homopolymer substrate.
b) Genotype 1b Full-Length Enzyme
Reaction Conditions were 0.5 μM [^33P]-GTP (20 Ci/mMol), 1 mM Dithiothreitol, 20 mM MgCl2, 5 mM MnCl2, 20 mM Tris-HCl, pH7.5, 1.6 μg/mL polyC/0.256 μM biotinylated oligoG13, 10% glycerol, 0.01% NP-40, 0.2 u/μL RNasin and 50 mM NaCl.
HCV RNA Polymerase (Recombinant full-length NS5B (Lohmann et al, J. Virol. 71 (11), 1997, 8416. ‘Biochemical properties of hepatitis C virus NS5B RNA-dependent RNA polymerase and identification of amino acid sequence motifs essential for enzymatic activity’) expressed in baculovirus and purified to homogeneity) was added to 4 nM final concentration.
5× concentrated assay buffer mix was prepared using 1M MnCl2 (0.25 mL), glycerol (2.5 mL), 10% NP-40 (0.025 mL) and Water (7.225 mL), Total 10 mL.
2× concentrated enzyme buffer contained 1M-Tris-HCl, pH7.5 (0.4 mL), 5M NaCl (0.2 mL), 1M-MgCl2 (0.4 mL), glycerol (1 mL), 10% NP-40 (10 μL), 1M DTT (20 μL) and water (7.97 mL), Total 10 mL.
Substrate Mix was prepared using 5× Concentrated assay Buffer mix (4 μL), [^33P]-GTP (10 μCi/μL, 0.02 μL), 25 μM GTP (0.4 μL), 40 u/μL RNasin (0.1 μL), 20 μg/mL polyrC/biotinylated-oligoG (1.6 μL), and Water (3.94 μL), Total 10 μL.
Enzyme Mix was prepared by adding 1 mg/ml full-length NS5B polymerase (1.5 μL) to 2.81 mL 2×-concentrated enzyme buffer.
The Assay was set up using compound (1 μL), Substrate Mix (10 μL), and Enzyme Mix (added last to start reaction) (10 μL), Total 21 μL.
The reaction was performed in a U-bottomed, white, 96-well plate. The reaction was mixed on a plate-shaker, after addition of the Enzyme, and incubated for 1 h at 22° C. After this time, the reaction was stopped by addition of 40 μL 1.875 mg/ml streptavidin SPA beads in 0.1 M EDTA. The beads were incubated with the reaction mixture for 1 h at 22° C. after which 120 μL 0.1 M EDTA in PBS was added. The plate was sealed, mixed centrifuged and incorporated radioactivity determined by counting in a Trilux (Wallac) or Topcount (Packard) Scintillation Counter.
After subtraction of background levels without enzyme, any reduction in the amount of radioactivity incorporated in the presence of a compound, compared to that in the absence, was taken as a measure of the level of inhibition. Ten concentrations of compounds were tested in three- or fivefold dilutions. From the counts, percentage of inhibition at highest concentration tested or IC50s for the compounds were calculated using GraFit 3, GraFit 4 or GraFit 5 (Erithacus Software Ltd.) software packages or a data evaluation macro for Excel based on XLFit Software (IDBS).

Work on `COc1cc(C(=O)N2[C@@H](c3ncc(C)s3)[C@@H](c3cnccn3)C[C@@]2(Cc2nccs2)C(=O)O)ccc1C(C)(C)C` (racemic) [Example 13, rel-(2R,4S,5R)-1-(3-Methoxy-4-tert-butylbenzoyl)-5-(5-methyl-1,3-thiazol-2-yl)-4-(pyrazin-2-yl)-2-(1,3-thiazol-2-ylmethyl)pyrrolidine-2-carboxylic acid] yielded an IC50 [1] of under 10 µM and an IC50 [2] of under 0.1 µM.

With `COc1cc(C(=O)N2[C@@H](c3ncc(C)s3)[C@@H](c3cnccn3)C[C@@]2(Cc2cscn2)C(=O)O)ccc1C(C)(C)C` (racemic) [Example 15, rel-(2R,4S,5R)-1-(3-Methoxy-4-tert-butylbenzoyl)-5-(5-methyl-1,3-thiazol-2-yl)-4-(pyrazin-2-yl)-2-(1,3-thiazol-4-ylmethyl)pyrrolidine-2-carboxylic acid] the IC50 [1] was under 10 µM and the IC50 [2] was under 0.1 µM.

Molecule `COc1cc(C(=O)N2[C@@H](c3nccs3)[C@@H](c3cnccn3)C[C@@]2(CC(C)C)C(=O)O)ccc1C(C)(C)C` (single isomer, unassigned; enantiomer a) [Compound B, reference compound] has an IC50 [1] of 10 to 100 µM and an IC50 [2] of over 0.5 µM.

`COc1cc(C(=O)N2[C@@H](c3nccs3)[C@@H](c3cnccn3)C[C@@]2(Cc2cscn2)C(=O)O)ccc1C(C)(C)C` (single isomer, unassigned; enantiomer a) [Example 2] was tested, and the IC50 [1] was under 10 µM and the IC50 [2] was under 0.1 µM.

Work on `COc1cc(C(=O)N2[C@@H](c3nccs3)[C@@H](c3cnccn3)C[C@@]2(Cc2nccs2)C(=O)O)ccc1C(C)(C)C` (single isomer, unassigned; enantiomer a) [Example 4] yielded an IC50 [1] of under 10 µM and an IC50 [2] of under 0.1 µM.

For `COc1cc(C(=O)N2[C@@H](c3ncc(C)s3)[C@@H](c3cnccn3)C[C@@]2(Cc2ccsn2)C(=O)O)ccc1C(C)(C)C` (single isomer, unassigned; enantiomer a) [Example 6], the IC50 [1] was under 10 µM and the IC50 [2] was under 0.1 µM.

`COc1cc(C(=O)N2[C@@H](c3nccs3)[C@@H](c3cnccn3)C[C@@]2(Cc2ccsn2)C(=O)O)ccc1C(C)(C)C` (single isomer, unassigned; enantiomer a) [Example 8] showed an IC50 [1] of under 10 µM and an IC50 [2] of under 0.1 µM.

`COc1cc(C(=O)N2[C@@H](c3ncc(C)s3)[C@@H](c3cnccn3)C[C@@]2(Cn2cccn2)C(=O)O)ccc1C(C)(C)C` (single isomer, unassigned; enantiomer a) [Example 10] showed an IC50 [1] of under 10 µM and an IC50 [2] of under 0.1 µM.

Work on `COc1cc(C(=O)N2[C@@H](c3nccs3)[C@@H](c3cnccn3)C[C@@]2(Cn2cccn2)C(=O)O)ccc1C(C)(C)C` (single isomer, unassigned; enantiomer a) [Example 12] yielded an IC50 [1] of under 10 µM and an IC50 [2] of under 0.1 µM.

In the case of `COc1cc(C(=O)N2[C@@H](c3ncc(C)s3)[C@@H](c3cnccn3)C[C@@]2(Cc2nccs2)C(=O)O)ccc1C(C)(C)C` (single isomer, unassigned; enantiomer a) [Example 14], the IC50 [1] is reported as under 10 µM and the IC50 [2] is reported as under 0.1 µM.

Work on `COc1cc(C(=O)N2[C@@H](c3ncc(C)s3)[C@@H](c3cnccn3)C[C@@]2(Cc2cscn2)C(=O)O)ccc1C(C)(C)C` (single isomer, unassigned; enantiomer a) [Example 16] yielded an IC50 [1] of under 10 µM and an IC50 [2] of under 0.1 µM.
